Measurements from patent publication US4540513A, “Decapeptide having gonadotropin releasing activity” (Kanegafuchi Kagaku Kogyo Kabushiki Kaisha, priority 1984, dated 1985).
Where a SMILES comes first, the peptide text is derived from it. [ ]: non-standard residue; d: D form. pGlu = O=C1CC[C@@H](C(=O)O)N1

Test system: rat prehypophysis (anterior pituitary) cells
Assay: Gonadotropin (LH and FSH) releasing activity, monolayer culture of rat prehypophysis cells, radioimmunoassay of the supernatant
Type: cell-based
Experimental: The synthetic or natural decapeptides prepared in Example 1 was dissolved in 1N acetic acid so that the concentration was 1 μg/ml.
A series of half dilutions from 10.24 ng/ml to 10 pg/ml was prepared from the above solution.
Each sample solution in the series was dried in a rotary evaporator by evaporating 1N acetic acid.
The releasing activity was measured by monolayer culture method using rat prehypohysis cells. After rat prehypophysis cells were disperesed with tripsin and Viokase, the dispersed cells were washed well with a culture medium [Dulbecco's modified Eagle's medium (DMEM) containing 100 unit/ml gentamicin, 2.5 μ/ml fungizone, 5% horse serum, 5% human serum, and 2.5% fetal bovine serum]. The cells were inoculated at a density of 5×10^4 cells in each well of a plastic culture tray having 96 wells and precultured for 4 days.
Samples to be tested for gonadotropin releasing activity were added to the fifth-day culture and the culture was further incubated for 24 hours at 37° C. in the presence of 5% CO2.
On the fifth day of the culture the above dried peptide sampls were dissolved in 0.5 ml of the Dulbecco's modified Eagle's medium (DMEM), 0.2 ml of aligot was aded to each well, and the cells were cultured in the well for additional 24 hours.
After the culture, the supernatent of the culture was withdrawn and assayed for LH and FSH with the radio imunoassay kit provided by NIH.

[1] = 24 hours incubation, LH and FSH by radioimmunoassay

NC(=O)CNC(=O)[C@@H]1CCCN1C(=O)[C@H](Cc1ccc(O)cc1)NC(=O)[C@H](Cc1c[nH]c2ccccc12)NC(=O)CNC(=O)[C@H](Cc1c[nH]cn1)NC(=O)[C@H](CO)NC(=O)[C@H](Cc1c[nH]c2ccccc12)NC(=O)[C@H](Cc1c[nH]cn1)NC(=O)[C@@H]1CCC(=O)N1 [decapeptide of the present invention, pGlu-His-Trp-Ser-His-Gly-Trp-Tyr-Pro-Gly-NH2] ([pGlu]HWSHGWYPG-NH2)
lowest detectable amount [1]: 160 pg/mL
specific activity at the half maximum dose [1]: 3.1 ng/mL
LH and FSH releasing activity, specific activity relative to conventional LH-RH (% of the conventional LH-RH in specific activity): 30%
gonadotropin-releasing potency relative to mammalian LHRH (bioassay with rat anterior pituitary cells, % of that of mammalian LHRH): about 32%
gonadotropin-releasing potency relative to chicken LHRH (bioassay with rat anterior pituitary cells, times more potent than chicken LHRH): 8 times
LH releasing activity at the maximum dose relative to control (maximum dose, bigger than that of the control): about 3.5 times
LH releasing activity at the maximum dose (maximum dose, control 200 ng/ml LH): 3200 ng/ml LH
activity of the purified relative to the starting material (purified from chicken hypothalamus extract, times more than the starting material): about 15×10^8 times
